Source: patent US4190670A, “Prostaglandin derivatives” (priority 1974, dated 1980)
Where two headings read alike, the source gives them in different places.

Key:
[1] = cited from earlier work
[2] = tested on: Histamine-induced broncho-constriction; test: Antagonism of histamine-induced broncho-constriction (guinea-pig); format: in vivo; settings: Cavia porcellus, iv, read-out: % INHIBITION (± S.D.) of histamine-induced broncho-constriction
Method: The activity of the 18.xi.-, 19.xi.- and 20.xi.-hydroxy-prostaglandin derivatives on the respiratory tract misculature was further confirmed by determination of their ability to antagonize histamine-induced bronchoconstriction. This test is a modification of the guinea-pig multiparameter test, cannulations being carried out only for recording blood pressure, tracheal segment pressure and bronchial resistance.
Histamine was injected i.v. in a dose of 4 μg (as base) at regular intervals throughout the experiment. If extra doses of sodium pentobarbitone had to be administered during the course of the experiment to suppress voluntary respiration, the interval to the next dose of histamine was lengthened.
Test compounds were injected i.v. one minute before histamine in volumes less than 0.5 ml. The substances were washed in with 0.3 ml sterile saline. The lungs were artificially over-ventilated one minute prior to injection of the test compounds.
The ability of the compounds to counteract histamine-induced bronchoconstriction and the increase in tracheal segment pressure was determined using two dose levels--a low one and a high one.

[3] = tested on: bronchioles (bronchial resistance); test: Guinea-pig multiparameter test: bronchial resistance; format: in vivo; settings: anaesthetized guinea-pig
Method: (§1) The selective activity of the hydroxy-prostaglandin derivatives of the present invention was established by a multiparameter guinea-pig test. In this test guinea-pigs weighing 600-900 g are anaesthetized with sodium pentobarbitone (45 mg/kg, i.p.). Supplementary doses of sodium pentobarbitone (3-6 mg i.v.) are administered when required (i.e. when spontaneous respiration appears). The jugular vein is cannulated for the administration of drugs. The guinea-pig is artificially respired with N2 O/O2 (7/3), using a Keuskamp respirator.
(§2) Then the following functions are measured:
b. Bronchial resistance and tracheal segment pressure.
A cannula is inserted into the trachea as close as possible to the thorax. The guinea-pig is artificially ventilated at 55 strokes/min. The pressure changes, assumed to be due to changes caused by the bronchioles, are measured by a pressure transducer attached to a side arm of the cannula. The trachea is occluded at its lower end with a blind-ended cannula, while a cannula is further introduced into the trachea as close as possible to the larynx. The system is completely filled with saline, and connected to a very sensitive pressure transducer. Changes in the pressure measured (cm H2 O) are assumed to reflect changes in the tone of the smooth muscle of the trachea. The trachea segment cannula is inserted with extreme caution so as to avoid disruption of the nerve or blood supply to the segment.

[4] = tested on: uterus (uterine motility); test: Guinea-pig multiparameter test: uterine contractions; format: in vivo; settings: anaesthetized guinea-pig
Method: as §1, §2
d. Measurement of uterine motility.
A polyethylene cannula is inserted into the uterus via the vagina to a depth of 2.5 cm. This is then tied off with a ligature around the cervix. The cannula is connected to a pressure transducer, the whole system being filled with liquid paraffin at a pressure of 10-20 mm Hg.

[5] = tested on: rabbit eye; test: Irritation following topical application in the rabbit eye (Draize scoring method); format: in vivo
Description: This effect can be studied using the Draize scoring method for determining irritation following topical application in the rabbit eye.

[6] = tested on: duodenum (intestinal motility); test: Guinea-pig multiparameter test: intestinal contractions; format: in vivo; settings: anaesthetized guinea-pig
Method: as §1, §2
c. Measurement of intestinal motility.
A balloon, containing distilled water and connected to a pressure transducer, is inserted in the duodenum of the guinea-pig. Care is taken on ligaturing the cannula to avoid stricture of the duodenum. The balloon is at a pressure of 10-20 mm Hg.

In the case of CCCCC[C@H](O)/C=C/[C@H]1[C@H](O)CC(=O)[C@@H]1C/C=C\CCCC(=O)O [PGE2, 9-keto-11α,15α-dihydroxy-prosta-5(c),13(t)-dienoic acid], the “persistant coughing on aerosol use” value [1] is listed as “persistant coughing”.

For CC(O)CCC[C@H](O)/C=C/[C@H]1CCC(=O)[C@@H]1C/C=C\CCCC(=O)O (stereo partly drawn) [9-keto-15α,19.xi.-dihydroxy-prosta-5(c),13(t)-dienoic acid], the inhibition in vivo at 0.001 mg [2] was 50.3%.

In the case of CCCCC[C@H](O)/C=C/[C@H]1[C@H](O)CC(=O)[C@@H]1CCCCCCC(=O)O [PGE1, 9-keto-11α,15α-dihydroxy-prost-13(t)-enoic acid, reference compound], the BRONCHIAL resistance ([3]; dose 5 μg) is reported as 0, the UTERINE contractions ([4]; dose 5 μg) is reported as 0 and the threshold irritant dose [5] is reported as 1 μg/eye. For the same compound, the inhibition in vivo at 0.0001 mg ([2]; dose 0.1 μg i.v., one minute before histamine 4 μg i.v.) was 27.6%, the inhibition in vivo at 0.001 mg ([2]; dose 1 μg i.v., one minute before histamine 4 μg i.v.) was 53.2% and the inhibition in vivo at 0.005 mg ([2]; dose 5.0 μg i.v., one minute before histamine 4 μg i.v.) was roughly 88%.

Work on CC(O)CCC[C@H](O)/C=C/[C@H]1CCC(=O)[C@@H]1CCCCCCC(=O)O (relative stereo) [9-keto-15α,19.xi.-dihydroxy-prost-13(t)-enoic acid] yielded a BRONCHIAL resistance ([3]; dose 100 μg) of 0, a UTERINE contractions ([4]; dose 100 μg) of 0 and an inhibition in vivo at 0.001 mg [2] of 23.9%. The inhibition in vivo at 0.1 mg [2] was 88.1% and the INTESTINAL contractions ([6]; dose 100 μg) was 0.

CCC(O)CC[C@H](O)/C=C/[C@H]1CCC(=O)[C@@H]1CCCCCCC(=O)O (relative stereo) [9-keto-15α,18.xi.-dihydroxy-prost-13(t)-enoic acid] showed a BRONCHIAL resistance ([3]; dose 100 μg) of 0, a UTERINE contractions ([4]; dose 100 μg) of 0 and an inhibition in vivo at 0.001 mg [2] of 25.9%. For the same compound, the inhibition in vivo at 0.1 mg [2] was roughly 80% and the INTESTINAL contractions ([6]; dose 100 μg) was 0.

With O=C(O)CCCCCC[C@H]1[C@H](O)CC[C@@H]1/C=C/[C@@H](O)CCCCCO (relative stereo) [9β,15α,20-trihydroxy-prost-13(t)-enoic acid] the BRONCHIAL resistance ([3]; dose 500 μg) was 0, the UTERINE contractions ([4]; dose 500 μg) was 0 and the inhibition in vivo at 0.1 mg [2] was 52.9%. The INTESTINAL contractions ([6]; dose 500 μg) was 0.

With CC(O)CCC[C@H](O)/C=C/[C@H]1CC[C@@H](O)[C@@H]1CCCCCCC(=O)O (relative stereo) [9β,15α,19.xi.-trihydroxy-prost-13(t)-enoic acid] the BRONCHIAL resistance ([3]; dose 500 μg) was 0, the UTERINE contractions ([4]; dose 500 μg) was 0 and the inhibition in vivo at 0.1 mg [2] was 62.5%. For the same compound, the INTESTINAL contractions ([6]; dose 500 μg) was 0.

Work on CCC(O)CC[C@H](O)/C=C/[C@H]1[C@H](O)CC(=O)[C@@H]1C/C=C\CCCC(=O)O (stereo partly drawn) [9-keto-11α,15α,18.xi.-trihydroxy-prosta-5(c),13(t)-dienoic acid] yielded an inhibition in vivo at 0.001 mg [2] of roughly 35%.

With CCC(O)CC[C@H](O)/C=C/[C@H]1CCC(=O)[C@@H]1C/C=C\CCCC(=O)O (stereo partly drawn) [9-keto-15α,18.xi.-dihydroxy-prosta-5(c),13(t)-dienoic acid] the inhibition in vivo at 0.001 mg [2] was 45%.

Work on CC(O)CCC[C@@H](O)/C=C/[C@H]1CCC(=O)[C@@H]1CCCCCCC(=O)O (relative stereo) [9-keto-15β,19.xi.-dihydroxy-prost-13(t)-enoic acid] yielded an inhibition in vivo at 0.5 mg [2] of roughly 85%.

In the case of CC(O)CCC[C@H](O)/C=C/[C@H]1[C@H](O)CC(=O)[C@@H]1CCCCCCC(=O)O (stereo partly drawn) [9-keto-11α,15α,19.xi.-trihydroxy-prost-13(t)-enoic acid], the inhibition in vivo at 0.001 mg [2] is reported as roughly 60%.

Compound CCC(O)CC[C@H](O)/C=C/[C@H]1CC[C@@H](O)[C@@H]1CCCCCCC(=O)O (relative stereo) [9β,15α,18.xi.-trihydroxy-prost-13(t)-enoic acid] has a BRONCHIAL resistance ([3]; dose 500 μg) of 0, a UTERINE contractions ([4]; dose 500 μg) of 0 and an inhibition in vivo at 0.1 mg [2] of 28.1%. For the same compound, the INTESTINAL contractions ([6]; dose 500 μg) was 0.

In the case of CCC(O)CC[C@H](O)/C=C/[C@H]1[C@H](O)CC(=O)[C@@H]1CCCCCCC(=O)O (stereo partly drawn) [9-keto-11α,15α,18.xi.-trihydroxy-prost-13(t)-enoic acid], the inhibition in vivo at 0.001 mg [2] is reported as roughly 70%.

CC(O)CCC[C@H](O)/C=C/[C@H]1[C@H](O)CC(=O)[C@@H]1C/C=C\CCCC(=O)O (stereo partly drawn) [9-keto-11α,15α,19.xi.-trihydroxy-prosta-5(c),13(t)-dienoic acid] showed an inhibition in vivo at 0.001 mg [2] of roughly 70%.

Compound O=C(O)CCC/C=C\C[C@H]1C(=O)CC[C@@H]1/C=C/[C@@H](O)CCCCCO [9-keto-15α,20-dihydroxy-prosta-5(c),13(t)-dienoic acid] has an inhibition in vivo at 0.001 mg [2] of 60.7%.

CC(O)CCC[C@@H](O)/C=C/[C@H]1CC[C@H](O)[C@@H]1CCCCCCC(=O)O (relative stereo) [9α,15β,19.xi.-trihydroxy-prost-13-(t)-enoic acid] gave an inhibition in vivo at 0.5 mg [2] of roughly 60%.
